Assay results published in patent US6951863B2, “Pyridoarylphenly oxazolidinone antibacterials, and related compositions and methods” (Ortho-McNeil Pharmaceutical, Inc., priority 2001, dated 2005).
Converted amounts (≈) assume the structure as drawn.

Legend:
S. aureus OC2878 = test: MIC, microdilution broth method (NCCLS); assay type: cell-based; details: Staphylococcus aureus; S. aureus OC2878 (MRSA); 35° C., 16-20 hours; read-out: MIC (μg/mL) in Test Strains S. aureus OC2878
Experimental: (§1) Minimal inhibitory concentration (MIC) has been an indicator of in vitro antibacterial activity widely used in the art. The in vitro antimicrobial activity of the compounds was determined by the microdilution broth method following the test method from the National Committee for Laboratory Standards (NCCLS). This method is described in the NCCLS Document M7-A4, Vol. 17, No. 2, “Methods for Dilution Antimicrobial Susceptibility Test for Bacteria that Grow Aerobically—Fourth Edition”, which is incorporated herein by reference.
(§2) In this method two-fold serial dilutions of drug in cation adjusted Mueller-Hinton broth are added to wells in microdilution trays. The test organisms are prepared by adjusting the turbidity of actively growing broth cultures so that the final concentration of test organism after it is added to the wells is approximately 5×10^4 CFU/well.
(§3) Following inoculation of the microdilution trays, the trays are incubated at 35° C. for 16-20 hours and then read. […] The amount of growth in the wells containing the test compound is compared with the amount of growth in the growth-control wells (no test compound) used in each tray. As set forth in Table 1, some compounds of the present invention were tested against a variety of pathogenic bacteria resulting in a range of activities, from 1 to >128 μg/mL depending on the organism tested. S. aureus OC2878 is a MRSA and E. faecium OC3312 is a vancomycin-resistant enterococcus.

E. faecium OC3312 = test: MIC, microdilution broth method (NCCLS); assay type: cell-based; details: E. faecium OC3312 (vancomycin-resistant enterococcus); 35° C., 16-20 hours; read-out: MIC (μg/mL) in Test Strains E. faecium OC3312
Experimental: as §1, §2, §3

S. aureus OC4172 = test: MIC, microdilution broth method (NCCLS); assay type: cell-based; details: Staphylococcus aureus, 35° C., 16-20 hours, read-out: MIC (μg/mL) in Test Strains S. aureus OC4172
Experimental: as §1, §2, §3

SMILES | MIC (S. aureus OC2878) [µg/mL] | MIC (E. faecium OC3312) [µg/mL] | MIC (S. aureus OC4172) [µg/mL] | melting point
CC(=O)NC[C@H]1CN(c2ccc(N3CCc4ccccc4C3)c(F)c2)C(=O)O1 [Compound 2, acetamide, N-[[(5S)-3-[4-(3,4-dihydro-2(1H)-isoquinolinyl)-3-fluorophenyl]-2-oxo-5-oxazolidinyl]methyl]-] | 4 (≈ 10.4 µM) | 8 (≈ 20.9 µM) | 8 (≈ 20.9 µM) | 131 to 134 °C
CC(=O)NC[C@H]1CN(c2ccc(N3CCc4ccncc4C3)c(F)c2)C(=O)O1 [Compound 3, acetamide, N-[[(5S)-3-[4-(3,4-dihydro-2,7-naphthyridin-2(1H)-yl)-3-fluorophenyl]-2-oxo-5-oxazolidinyl]methyl]-] | 4 (≈ 10.4 µM) | 8 (≈ 20.8 µM) | 8 (≈ 20.8 µM) | 141 to 144 °C (dec.)
CC(=O)NC[C@H]1CN(c2ccc(N3CCc4ncncc4C3)c(F)c2)C(=O)O1 [Compound 5, acetamide, N-[[(5S)-3-[4-(7,8-dihydropyrido[4,3-d]pyrimidin-6(5H)-yl)-3-fluorophenyl]-2-oxo-5-oxazolidinyl]methyl]-] | 2 (≈ 5.19 µM) | 8 (≈ 20.8 µM) | 4 (≈ 10.4 µM) | –
CC(=O)NC[C@H]1CN(c2ccc(N3CCc4nc(-c5csc(C)n5)ncc4C3)c(F)c2)C(=O)O1 [Compound 7, acetamide, N-[[(5S)-3-[4-[7,8-dihydro-2-(2-methyl-4-thiazolyl)pyrido[4,3-d]pyrimidin-6(5H)-yl]-3-fluorophenyl]-2-oxo-5-oxazolidinyl]methyl]-] | 8 (≈ 16.6 µM) | 8 (≈ 16.6 µM) | 8 (≈ 16.6 µM) | –
CC(=O)NC[C@H]1CN(c2ccc(N3CCc4nc(-c5ccncc5)ncc4C3)c(F)c2)C(=O)O1 [Compound 8, acetamide, N-[[(5S)-3-[4-[7,8-dihydro-2-(4-pyridinyl)pyrido[4,3-d]pyrimidin-6(5H)-yl]-3-fluorophenyl]-2-oxo-5-oxazolidinyl]methyl]-] | 2 (≈ 4.32 µM) | 4 (≈ 8.65 µM) | 2 (≈ 4.32 µM) | –
CC(=O)NC[C@H]1CN(c2ccc(N3CCc4c(cnn4C)C3)c(F)c2)C(=O)O1 [Compound 11, acetamide, N-[[(5S)-3-[4-(1,4,6,7-tetrahydro-1-methyl-5H-pyrazolo[4,3-c]pyridin-5-yl)-3-fluorophenyl]-2-oxo-5-oxazolidinyl]methyl]-] | 8 (≈ 20.6 µM) | 16 (≈ 41.3 µM) | 16 (≈ 41.3 µM) | –

More lines, in order of falling MIC (S. aureus OC2878), values ahead:

MIC (S. aureus OC2878) [µg/mL] | MIC (E. faecium OC3312) [µg/mL] | MIC (S. aureus OC4172) [µg/mL] | melting point | SMILES
32 (≈ 93.5 µM) | > 128 | 128 (≈ 374 µM) | – | O=C1O[C@@H](CO)CN1c1ccc(N2CCc3ccccc3C2)c(F)c1 [Compound 1, 2-oxazolidinone, 3-[4-(3,4-dihydro-2(1H)-isoquinolinyl)-3-fluorophenyl]-5-(hydroxymethyl)-, (5R)-]
16 (≈ 40.2 µM) | 32 (≈ 80.3 µM) | 32 (≈ 80.3 µM) | – | CC(=O)NC[C@H]1CN(c2ccc(N3CCc4cnccc4C3=O)c(F)c2)C(=O)O1 [Compound 4, acetamide, N-[[(5S)-3-[4-(3,4-dihydro-1-oxo-2,6-naphthyridin-2(1H)-yl)-3-fluorophenyl]-2-oxo-5-oxazolidinyl]methyl]-]
8 (≈ 21.4 µM) | 16 (≈ 42.9 µM) | 8 (≈ 21.4 µM) | – | CC(=O)NC[C@H]1CN(c2ccc(N3CCc4[nH]ncc4C3)c(F)c2)C(=O)O1 [Compound 10, acetamide, N-[[(5S)-3-[4-(1,4,6,7-tetrahydro-5H-pyrazolo[4,3-c]pyridin-5-yl)-3-fluorophenyl]-2-oxo-5-oxazolidinyl]methyl]-]
4 (≈ 8.63 µM) | 8 (≈ 17.3 µM) | 4 (≈ 8.63 µM) | – | CC(=O)NC[C@H]1CN(c2ccc(N3CCc4nc(-c5cnccn5)ncc4C3)c(F)c2)C(=O)O1 [Compound 9, acetamide, N-[[(5S)-3-[4-(7,8-dihydro-2-pyrazinylpyrido[4,3-d]pyrimidin-6(5H)-yl)-3-fluorophenyl]-2-oxo-5-oxazolidinyl]methyl]-]
2 (≈ 5.01 µM) | 8 (≈ 20 µM) | 4 (≈ 10 µM) | – | CC(=O)NC[C@H]1CN(c2ccc(N3CCc4nc(C)ncc4C3)c(F)c2)C(=O)O1 [Compound 6, acetamide, N-[[(5S)-3-[4-(7,8-dihydro-2-methylpyrido[4,3-d]pyrimidin-6(5H)-yl)-3-fluorophenyl]-2-oxo-5-oxazolidinyl]methyl]-]
